Measured values taken from the Kinase Knowledgebase extract (Sharma et al. 2016).

Target: EGFR (human) (UniProt P00533)
Conditions: a431

Sequence of EGFR (human) (P00533 whole entry, looked up): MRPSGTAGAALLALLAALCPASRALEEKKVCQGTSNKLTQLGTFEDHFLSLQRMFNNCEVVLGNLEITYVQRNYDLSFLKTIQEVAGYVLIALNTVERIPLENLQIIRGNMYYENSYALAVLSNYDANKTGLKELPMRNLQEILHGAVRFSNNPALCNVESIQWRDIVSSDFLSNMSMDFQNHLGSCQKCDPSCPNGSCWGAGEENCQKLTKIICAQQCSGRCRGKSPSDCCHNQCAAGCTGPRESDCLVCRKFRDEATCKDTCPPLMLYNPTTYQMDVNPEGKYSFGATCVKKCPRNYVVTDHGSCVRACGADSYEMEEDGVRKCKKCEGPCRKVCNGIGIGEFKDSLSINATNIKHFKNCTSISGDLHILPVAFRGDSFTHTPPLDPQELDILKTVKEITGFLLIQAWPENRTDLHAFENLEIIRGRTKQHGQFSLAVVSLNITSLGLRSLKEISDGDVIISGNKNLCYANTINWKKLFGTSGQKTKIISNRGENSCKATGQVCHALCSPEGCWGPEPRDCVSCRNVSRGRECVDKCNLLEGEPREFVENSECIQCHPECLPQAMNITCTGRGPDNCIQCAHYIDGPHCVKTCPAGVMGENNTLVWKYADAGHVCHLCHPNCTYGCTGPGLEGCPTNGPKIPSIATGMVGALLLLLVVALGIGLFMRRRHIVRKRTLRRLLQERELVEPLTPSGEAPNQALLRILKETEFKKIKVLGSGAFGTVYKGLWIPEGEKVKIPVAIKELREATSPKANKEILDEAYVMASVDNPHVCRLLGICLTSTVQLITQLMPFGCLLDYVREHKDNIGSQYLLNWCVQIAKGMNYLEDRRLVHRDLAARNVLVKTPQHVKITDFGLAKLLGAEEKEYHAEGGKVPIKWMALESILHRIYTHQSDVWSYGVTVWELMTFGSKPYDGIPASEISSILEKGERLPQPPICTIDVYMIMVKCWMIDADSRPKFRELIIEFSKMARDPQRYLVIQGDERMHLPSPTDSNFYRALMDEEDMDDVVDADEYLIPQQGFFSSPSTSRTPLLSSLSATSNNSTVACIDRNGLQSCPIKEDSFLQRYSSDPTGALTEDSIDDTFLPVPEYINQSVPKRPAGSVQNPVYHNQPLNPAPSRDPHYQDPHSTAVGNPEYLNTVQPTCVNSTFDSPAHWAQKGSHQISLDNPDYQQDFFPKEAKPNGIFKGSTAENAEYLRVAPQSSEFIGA

| SMILES | IC50 |
| --- | --- |
| c1ccc(-c2cnc3cc4ccccc4cc3n2)cc1 | > 100 µM |
| Cc1nc2cc3nc(-c4ccccc4)cnc3cc2n1C | > 30 µM |
| Cc1cc2ncc(-c3ccccc3)nc2cc1C | > 100 µM |
| COc1cc2ncc(-c3ccccc3)nc2cc1OC | > 100 µM |
| Cc1nc2cc3nc(-c4cc[cH-]c4)cnc3cc2n1C.[Fe+2].c1cc[cH-]c1 | > 30 µM |
| Cc1nc2cc3ncc(-c4ccccc4)nc3cc2n1C | > 30 µM |

Next, values leading:

| IC50 | SMILES |
| --- | --- |
| > 30 µM | Cc1cc2ncc(-c3cc[cH-]c3)nc2cc1C.[Fe+2].c1cc[cH-]c1 |
| > 30 µM | Cc1nc2cc3ncc(-c4cccs4)nc3cc2n1C |
| > 30 µM | Cc1nc2cc3nc(-c4cccs4)cnc3cc2n1C |
| > 30 µM | Cc1cc2ncc(-c3cccs3)nc2cc1C |
